Experimental data published in US10689377B2 (Mirati Therapeutics, Inc., priority 2017, dated 2020).
pIC50: −log10 of the molar value.

Key:
KRas G12C [1] = molecular target: KRas G12C (Homo sapiens, UniProt P01116, G12C); experiment: Cellular inhibition of KRas G12C measured by Phospho-ERK in NCI-H358 cells; type: cell-based; settings: pERK(Thr202/Tyr204) normalized with GAPDH, NCI-H358 cells, 3 hours; read-out: IC50
How it was run: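 Ratio of phospho-ERK(Thr202/Tyr204) to GAPDH, read by near-infrared secondary antibodies on fixed, permeabilised NCI-H358 cells, expressed relative to DMSO control. Compound exposure was 3 h at 0.5% DMSO. IC50 values come from 4-parameter curve fits.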

KRas G12C [2] = molecular target: KRas G12C (Homo sapiens, UniProt P01116, C118S/C51S/C80L/G12C); experiment: KRas G12C Modification Assay (LCMS detection of covalent adduct); type: binding
Procedure: A 10 μL aliquot of each protein solution was then transferred to a 384 well microtiter plate. Initial compound stocks were generated at fifty times their desired final assay concentration in DMSO.
Exemplary compounds of Formula (I) were diluted 25-fold into K-Ras Assay Buffer to a final of two times their final concentration. A 10 μL aliquot of each diluted compound solution was then added to each of the protein solutions in the microtiter plate to initiate reaction. […] At each time point, the reactions were quenched with 20 μL of a 25 mM acetic acid solution. […] Once all reactions were quenched, the plates were heat sealed and the samples were injected into a LC/MS system for data acquisition.
Samples were injected in their liquid phase onto a C-3 reverse phase column to remove assay buffer and prepare the samples for mass spectrometer. The proteins were eluted from the column using an acetonitrile gradient and fed directly into the mass analyzer. Initial raw data analysis took place in Agilent MassHunter software immediately post data acquisition.
Raw data analysis of the intact protein was exclusively a deconvolution of the multiple charge states of each protein in solution using a maximum entropy deconvolution provided in Mass Hunter. To minimize complexity, only the data over limited mass ranges were considered for analysis, with a minimum of one Dalton mass step intervals. The heights of all masses identified during raw data analysis were exported to be further analyzed in Spotfire® data analysis software.
Final data analysis was a multistep process in the Spotfire® data analysis software package. Briefly, each protein mass was calculated as a percent of the total signal of that sample, that percentage was then normalized to the percentage of signal of the protein in the absence of reactive compounds. Those normalized signals were reported as normalized percent of control (POC). […] Key: “A”≤25% POC; “B”>25% POC-≤50% POC; “C”>50% POC and ND=not determined.

[3] = normalized percent of control, 5 μM concentration for 3 hours

pIC50 (KRas G12C [1]) | POC (KRas G12C [2]; [3]) | Compound | POC (KRas G12C [2]; 5 µM)
< 6.00 | C (“C”>50% POC) | C=CC(=O)N1CCN(c2nc(OC[C@@H]3CCCN3C)nc3c2CCN(c2ncccc2C(F)(F)F)C3)CC1CC#N (stereo partly drawn) [Example 373, 2-(1-acryloyl-4-(2-(((S)-1-methylpyrrolidin-2-yl)methoxy)-7-(3-(trifluoromethyl)pyridin-2-yl)-5,6,7,8-tetrahydropyrido[3,4-d]pyrimidin-4-yl)piperazin-2-yl)acetonitrile] | –
< 6.00 | C (“C”>50% POC) | Cc1cccc(N2CCc3c(nc(OC[C@@H]4CCCN4C)nc3N3CCN(C(=O)C4=CCC4)[C@@H](CC#N)C3)C2)c1C [Example 392, 2-((S)-1-(cyclobut-1-ene-1-carbonyl)-4-(7-(2,3-dimethylphenyl)-2-(((S)-1-methylpyrrolidin-2-yl)methoxy)-5,6,7,8-tetrahydropyrido[3,4-d]pyrimidin-4-yl)piperazin-2-yl)acetonitrile] | –
6.00 to 10.00 | C (“C”>50% POC) | C=CC(=O)N1CCN(c2nc(OC[C@H]3CCN(C)C3)nc3c2CCN(c2cccc4ccccc24)C3)CC1CC#N (stereo partly drawn) [Example 399, 2-(1-acryloyl-4-(2-(((S)-1-methylpyrrolidin-3-yl)methoxy)-7-(naphthalen-1-yl)-5,6,7,8-tetrahydropyrido[3,4-d]pyrimidin-4-yl)piperazin-2-yl)acetonitrile] | –
6.00 to 10.00 | C (“C”>50% POC) | C=CC(=O)N1CCN(c2nc(OC[C@@H]3CCCN3C)nc3c2CCN(c2cccc4c2OCC4)C3)C[C@@H]1CC#N [Example 435, 2-((S)-1-acryloyl-4-(7-(2,3-dihydrobenzofuran-7-yl)-2-(((S)-1-methylpyrrolidin-2-yl)methoxy)-5,6,7,8-tetrahydropyrido[3,4-d]pyrimidin-4-yl)piperazin-2-yl)acetonitrile] | –
< 6.00 | C (“C”>50% POC) | C=CC(=O)N1CCN(c2nc(OC[C@@H]3CCCN3C)nc3c2CCN(c2c(C)c(C)cc4[nH]c(=O)[nH]c24)C3)CC1 [Example 456, 5,6-dimethyl-4-[2-[[(2S)-1-methylpyrrolidin-2-yl]methoxy]-4-(4-prop-2-enoylpiperazin-1-yl)-6,8-dihydro-5H-pyrido[3,4-d]pyrimidin-7-yl]-1,3-dihydrobenzimidazol-2-one] | –
6.00 to 10.00 | C (“C”>50% POC) | C=CC(=O)N1CCN(c2nc(OC[C@@H]3CCCN3C)nc3c2CCN(c2c(C)c(C)cc4[nH]ncc24)C3)C[C@@H]1CC#N [Example 462, 2-[(2S)-4-[7-(5,6-dimethyl-1H-indazol-4-yl)-2-[[(2S)-1-methylpyrrolidin-2-yl]methoxy]-6,8-dihydro-5H-pyrido[3,4-d]pyrimidin-4-yl]-1-prop-2-enoyl-piperazin-2-yl]acetonitrile] | –
6.00 to 10.00 | C (“C”>50% POC) | C=CC(=O)N1CCN(c2nc(OC[C@@H]3CCCN3C)nc3c2CCN(c2c(C)c(C)cc4[nH]ccc24)C3)C[C@@H]1CC#N [Example 466, 2-((S)-1-acryloyl-4-(7-(5,6-dimethyl-1H-indol-4-yl)-2-(((S)-1-methylpyrrolidin-2-yl)methoxy)-5,6,7,8-tetrahydropyrido[3,4-d]pyrimidin-4-yl)piperazin-2-yl)acetonitrile] | –
< 6.00 | C (“C”>50% POC) | CN1CCC[C@H]1COc1nc2c(c(N3CCN(C(=O)/C=C/CN4CCC(F)(F)C4)[C@@H](CC#N)C3)n1)CCN(c1cccc(Cl)c1C(F)(F)F)C2 [Example 471, 2-[(2S)-4-[7-[3-chloro-2-(trifluoromethyl)phenyl]-2-[[(2S)-1-methylpyrrolidin-2-yl]methoxy]-6,8-dihydro-5H-pyrido[3,4-d]pyrimidin-4-yl]-1-[(E)-4-(3,3-difluoropyrrolidin-1-yl)but-2-enoyl]piperazin-2-yl]acetonitrile] | –
6.00 to 10.00 | C (“C”>50% POC) | Cc1cccc2cccc(N3CCc4c(nc(OC[C@@H]5CCCN5C)nc4N4CCN(C(=O)/C=C/c5cccnc5)[C@@H](CC#N)C4)C3)c12 [Example 496, 2-((S)-4-(7-(8-methylnaphthalen-1-yl)-2-(((S)-1-methylpyrrolidin-2-yl)methoxy)-5,6,7,8-tetrahydropyrido[3,4-d]pyrimidin-4-yl)-1-((E)-3-(pyridin-3-yl)acryloyl)piperazin-2-yl)acetonitrile] | –
6.00 to 10.00 | C (“C”>50% POC) | Cc1cccc2cccc(N3CCc4c(nc(OC[C@@H]5CC(F)(F)CN5C)nc4N4CCN(C(=O)/C=C/CF)[C@@H](CC#N)C4)C3)c12 [Example 529, 2-((S)-4-(2-(((S)-4,4-difluoro-1-methylpyrrolidin-2-yl)methoxy)-7-(8-methylnaphthalen-1-yl)-5,6,7,8-tetrahydropyrido[3,4-d]pyrimidin-4-yl)-1-((E)-4-fluorobut-2-enoyl)piperazin-2-yl)acetonitrile] | –
6.00 to 10.00 | C (“C”>50% POC) | C=C(F)C(=O)N1CCN(c2nc(OC[C@@H]3CC(F)(F)CN3C)nc3c2CCN(c2cccc4cccc(C)c24)C3)C[C@@H]1CC#N [Example 530, 2-((S)-4-(2-(((S)-4,4-difluoro-1-methylpyrrolidin-2-yl)methoxy)-7-(8-methylnaphthalen-1-yl)-5,6,7,8-tetrahydropyrido[3,4-d]pyrimidin-4-yl)-1-(2-fluoroacryloyl)piperazin-2-yl)acetonitrile] | –
6.00 to 10.00 | C (“C”>50% POC) | C=C(F)C(=O)N1CCN(c2nc(OC[C@@H]3CC(F)(F)CN3C)nc3c2CCN(c2cccc4cccc(Cl)c24)C3)C[C@@H]1CC#N [Example 543] | –
6.00 to 10.00 | C (“C”>50% POC) | COC/C=C/C(=O)N1CCN(c2nc(OC[C@H]3CCCN3C)nc3c2CCN(c2cccc4cccc(C)c24)C3)C[C@@H]1CC#N [Example 554, 2-[(2S)-1-[(E)-4-Methoxybut-2-enoyl]-4-[7-(8-methyl-1-naphthyl)-2-[[(2R)-1-methylpyrrolidin-2-yl]methoxy]-6,8-dihydro-5H-pyrido[3,4-d]pyrimidin-4-yl]piperazin-2-yl] acetonitrile] | –
6.00 to 10.00 | C (“C”>50% POC) | C=C(F)C(=O)N1CCN(c2nc(OC[C@@H]3CCCN3C)nc3c2CCN(c2c(C(F)(F)F)c(C)cc4[nH]ncc24)C3)C[C@@H]1CC#N [Example 555, 2-((S)-1-(2-Fluoroacryloyl)-4-(7-(6-methyl-5-(trifluoromethyl)-1H-indazol-4-yl)-2-(((S)-1-methylpyrrolidin-2-yl)methoxy)-5,6,7,8-tetrahydropyrido [3,4-d]pyrimidin-4-yl)piperazin-2-yl)acetonitrile] | –
6.00 to 10.00 | C (“C”>50% POC) | C=C(F)C(=O)N1CCN(c2nc(OC[C@@H]3CCCN3C)nc3c2CCN(c2cc(O)cc4ccccc24)C3)C[C@@H]1CC#N [Example 556, 2-[(2S)-1-(2-Fluoroprop-2-enoyl)-4-[7-(3-hydroxy-1-naphthyl)-2-[[(2S)-1-methylpyrrolidin-2-yl]methoxy]-6,8-dihydro-5H-pyrido[3,4-d]pyrimidin-4-yl]piperazin-2-yl]acetonitrile] | –
6.00 to 10.00 | C (“C”>50% POC) | C=C(F)C(=O)N1CCN(c2nc(OC[C@H]3C[C@@H](F)CN3C)nc3c2CCN(c2cccc4cccc(Cl)c24)C3)C[C@@H]1CC#N [Example 558, 2-((S)-4-(7-(8-Chloronaphthalen-1-yl)-2-(((2R,4R)-4-fluoro-1-methylpyrrolidin-2-yl)methoxy)-5,6,7,8-tetrahydropyrido[3,4-d]pyrimidin-4-yl)-1-(2-fluoroacryloyl)piperazin-2-yl)acetonitrile] | –

Compound | pIC50 (KRas G12C [1]) | POC (KRas G12C [2]; [3]) | POC (KRas G12C [2]; 5 µM)
C=CC(=O)N1CCN(c2nc(OC[C@@H]3CCCN3C(C)C)nc3c2CCN(c2cccc4ccccc24)C3)CC1CC#N (stereo partly drawn) [Example 252, 2-[4-[2-[[(2S)-1-isopropylpyrrolidin-2-yl]methoxy]-7-(1-naphthyl)-6,8-dihydro-5H-pyrido[3,4-d]pyrimidin-4-yl]-1-prop-2-enoyl-piperazin-2-yl]acetonitrile] | 6.00 to 10.00 | C (“C”>50% POC) | –
C=CC(=O)N1CCN(c2nc(OC[C@H]3CCCN3C)nc3c2CCN(c2cccc4ccccc24)C3)C[C@@H]1CC#N [Example 267, 2-((S)-1-acryloyl-4-(2-(((R)-1-methylpyrrolidin-2-yl)methoxy)-7-(naphthalen-1-yl)-5,6,7,8-tetrahydropyrido[3,4-d]pyrimidin-4-yl)piperazin-2-yl)acetonitrile] | 6.00 to 10.00 | – | C (key: “A”≤25% POC; “B”>25% POC-≤50% POC; “C”>50% POC)
[2H]C([2H])=C([2H])C(=O)N1CCN(c2nc(OC[C@@H]3CCCN3C)nc3c2CCN(c2cccc4ccccc24)C3)C[C@@H]1CC#N [Example 475, 2-[(2S)-4-[2-[[(2S)-1-methylpyrrolidin-2-yl]methoxy]-7-(1-naphthyl)-6,8-dihydro-5H-pyrido[3,4-d]pyrimidin-4-yl]-1-(2,3,3-trideuterioprop-2-enoyl)piperazin-2-yl]acetonitrile] | 6.00 to 10.00 | C (“C”>50% POC) | –
